Publication PMC7449161, “Nonstationary Pharmacokinetics of Caspofungin in ICU Patients” (Antimicrobial Agents and Chemotherapy, 2020)
Like-named read-outs stand apart in the source and are kept apart here.

Assays:
[1] = Population pharmacokinetics of caspofungin in ICU patients (two-compartment nonlinear mixed-effects model); type: in vivo, human; conditions: for clearance: human, serum, iv; for typical AUC0–24: maintenance dose of 50 mg
Excerpt: This study was registered at ClinicalTrials.gov under ID NCT03399032. It was a prospective observational study conducted in adult critically ill patients admitted to ICU due to severe sepsis requiring broad-spectrum antibiotics with a high risk of fungal infection. Both medical and surgical patients with any type of infection (pulmonary, abdominal, urinary tract, etc.) were included. Eligible consent was obtained from each patient or his or her attendant. Allergy to caspofungin, lack of consent to participate in the study, and age below 18 or above 80 years were the exclusion criteria. Thirty-three patients were enrolled in the study. Data from three patients were excluded from analysis due to technical issue with handling the samples, which made them unsuitable for analysis and the concentrations could not be determined.
The antibiotic regimen included broad-spectrum antibacterial antibiotics plus caspofungin as empirical antifungal therapy (70 mg i.v. on the first day, and 50 mg i.v. on the consecutive days) once daily. In three patients with liver failure caspofungin doses were reduced (50 mg i.v. initial and 35 mg i.v. maintenance dose). Any site of infection was treated in the manner.
Blood samples (3 ml) were collected 0.5, 2, 4, 8, 12, and 24 h after each dose of caspofungin for three consecutive days from the standard arterial cannula. Thirty minutes after each sample collection, blood was centrifuged for 10 min at 3,000 rpm. Subsequently, the supernatant was collected and frozen. Serum caspofungin concentrations were measured with high-performance liquid chromatography (HPLC).
Plasma samples were prepared for analysis according to a previously described procedure ([3]). A Dionex chromatographic system (Dionex, Sunnyvale, CA), equipped with a P580 LPG LC-6A gradient pump, UVD340S UV-visible detector, and a Rheodyne 7725 loop injector with a sufficient volume of 20 μl was employed in this study. Chromatographic separation was achieved on a Zorbax SB C18 column (150 × 4.6 mm × 5 μm) in isocratic mode. The mobile phase consisted of 20 mM triethylammonium phosphate buffer (pH 3.0): acetonitrile-methanol (50:40:10 [vol/vol/vol]; Fluka, HPLC grade). The mobile phase flow rate was 1.0 ml/min, and caspofungin absorbance was measured at 210 nm. The analytical method was validated in terms of linearity, the limits of detection (LOD) and quantification (LOQ), precision, and accuracy. The standard curves were linear over a concentration range from 0.25 to 10.0 μg/ml with an R^2 of 0.987. The LOD and LOQ values for caspofungin were 0.08 and 0.18 μg/ml, respectively. The intra- and interday accuracies ranged from 98.1 to 102.8%, and the coefficients of variation (CVs) were between 0.8 and 3.4%.
Population nonlinear mixed-effects modeling was conducted using NONMEM software (v7.3; Icon Development Solutions, Ellicott City, MD), GNU Fortran 95 compiler (GCC 4.6.0), and Wings for NONMEM (WFN741, http://wfn.sourceforge.net). The first-order conditional estimation method with η-ε interaction was employed throughout the model-building procedure. R computing environment (R Core Team 2019) was used for data processing and visualization.
The minimum value of the NONMEM objective function (OFV), typical goodness-of-fit diagnostic plots, and the evaluation of the precision of pharmacokinetic parameters and variability estimates were used to discriminate between various models during the model-building process. For hierarchical models, the decrease in OFV of 6.62 units defining an improved fit at a P of <0.01 for one additional parameter was considered to be statistically significant. The uncertainty of final model parameters was determined by nonparametric bootstrap with 1,000 replicates. The 90% confidence intervals (90% CI) for model parameters were constructed based on bootstrap results.
During the structural model-building step, candidate one-, two-, and three-compartment models were tested to describe the pharmacokinetics of caspofungin. […]

[2] = cited from earlier work
Excerpt: There are little data concerning the influence of extracorporeal membrane oxygenation (ECMO) on caspofungin pharmacokinetics ([9], [10]). ECMO is known to alter drug pharmacokinetics due to drug extraction during the procedure and a large volume of exogenous blood needed for ECMO circuit. The changes include increased volume of distribution and decreased clearance ([11]). The interactions between the ECMO circuit and the drug are not always easily predictable, but one of the vital drug characteristics determining circuit drug loss is the lipophilicity and protein binding ([12], [13]). Since ca ... || The changes in parameters with time require further investigation as they might be caused by a process that our study was not able to capture and describe. It could be the result of temporal changes in protein binding as caspofungin is highly protein-bound (97%) ([6]). Another possibility is nonlinearity in metabolic or distribution processes.

[3] = cited from earlier work; for clearance: ICU patients
Excerpt: Although the CL after the first dose (0.563 liters/h, 6.7%RSE) is well within the values reported in literature, the CL after the second dose (0.737 liters/h, 6.1%RSE) is within the highest previously reported values, and the CL after the third dose (1.01 liters/h, 9.1%RSE) almost doubles compared to CL after the first dose and literature CL values.

C. albicans = conditions: preclinical pharmacodynamic target; cited from earlier work
Protocol: The simulations of PTA were based on model parameters from bootstrap samples (n = 1,000) in order to include the parameter uncertainty. Predictions of AUC at steady state were performed for the standard 50-mg maintenance dose.

C. glabrata = conditions: preclinical pharmacodynamic target; cited from earlier work
C. parapsilosis = conditions: preclinical pharmacodynamic target; cited from earlier work
[4] = cited from earlier work; for CL: healthy subjects
[5] = patients with liver failure, maintenance dose of 35 mg, from individual parameters

CC[C@H](C)C[C@H](C)CCCCCCCCC(=O)N[C@H]1C[C@@H](O)[C@@H](NCCN)NC(=O)[C@@H]2[C@@H](O)CCN2C(=O)[C@H]([C@H](O)CCN)NC(=O)[C@H]([C@H](O)[C@@H](O)c2ccc(O)cc2)NC(=O)[C@@H]2C[C@@H](O)CN2C(=O)[C@H]([C@@H](C)O)NC1=O [caspofungin]
decrease in exposure between doses ([1]; CL2 versus CL1): 24% | decrease in exposure between doses ([1]; CL3 versus CL1): 44% | decrease in caspofungin exposure ([1]; associated with increasing clearance with subsequent doses, ICU patients): > 20% | clearance ([1]; estimated during model building process, ICU patients, read-out: mean CL for all three occasions (converted)): 11.8 mL/min | clearance ([1]; typical clearance after first dose, 30 ICU patients, 70 mg i.v. day 1, 50 mg i.v. once daily after, HPLC-UV, final model, read-out: θCL day 1, Estimate (%RSE) (converted)): 9.38 mL/min | clearance ([1]; typical clearance after second dose, 30 ICU patients, i.v., final model, read-out: θCL day 2, Estimate (%RSE) (converted)): 12.3 mL/min | clearance ([1]; typical clearance after third dose, 30 ICU patients, i.v., final model, read-out: θCL day 3, Estimate (%RSE) (converted)): 16.8 mL/min | θQ, Estimate (%RSE) ([1]; intercompartmental clearance, 30 ICU patients, final model): 1.31 (15.7) liter/h | typical AUC0–24 ([1]; typical clearance after first dose (CL1)): 89 mg ⋅ h/liter | typical AUC0–24 ([1]; typical clearance after second dose (CL2)): 68 mg ⋅ h/liter | typical AUC0–24 ([1]; typical clearance after third dose (CL3)): 50 mg ⋅ h/liter | minimal AUC0–24 as % of the 98 mg ⋅ h/liter target ([1]; patients with liver failure, 35 mg maintenance): 23% | maximum AUC0–24 as % of the value required for efficacy ([1]; patients with liver failure, 35 mg maintenance, 98 mg ⋅ h/liter target): 62% | AUC0–24, maximum value [1, 5]: 61 mg ⋅ h/liter | AUC0–24, minimal value [1, 5]: 23 mg ⋅ h/liter | θV1 day 1, Estimate (%RSE) ([1]; volume of distribution of central compartment after first dose, 30 ICU patients, final model): 6.04 (7.0) liter | θV1 day 2, Estimate (%RSE) ([1]; volume of distribution of central compartment after second dose, 30 ICU patients, final model): 7.32 (5.3) liter | θV1 day 3, Estimate (%RSE) ([1]; volume of distribution of central compartment after third dose, 30 ICU patients, final model): 7.70 (5.3) liter | θV2, Estimate (%RSE) ([1]; volume of distribution of peripheral compartment, 30 ICU patients, final model): 5.13 (13.7) liter | protein bound [2]: 97% | mean clearance ([3]; ICU patients (Child-Pugh B score)): 0.55 L/h | clearance ([3]; day 3 of the study): 0.57 L/h | clearance ([3]; day 7 of the study): 0.54 L/h | clearance [3]: 0.66 L/h | CL, value provided in the drug label [3]: 0.72 L/h | mean clearance ([3]; patients undergoing CRRT): 0.62 L/h | mean clearance ([3]; patients with invasive aspergillosis, value for a 76-kg patient): 0.403 L/h | target AUC/MIC (C. albicans): 865 | target AUC/MIC (C. glabrata): 450 | target AUC/MIC (C. parapsilosis): 1,185 | CL ([4]; sampling for 26 weeks): 0.579 L/h | CL ([4]; sampling for 28 days): 0.631 L/h | quantifiable concentrations as long as, after administration ([4]; radioactive labeled caspofungin): 22.3 weeks
